Consider 14 compounds from patent publication US20240368163A1, “COMPOUNDS AND METHODS FOR MODULATING SPLICING” (REMIX THERAPEUTICS INC., priority 2021, published 2024).

Holding throughout (assay type): cell-based, human
The subject of assay [1] is HTT. The assay is described as follows: Splicing RT-qPCR assay, HTT mRNA canonical junction (CJ) and alternative junction (AJ). The conditions noted are these: Homo sapiens; for AC50: increase in AJ mRNA. In a few lines:
(§1)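 Splicing switch read by one-step RT-qPCR of canonical and alternative exon junctions, housekeeper-normalized (GAPDH/GUSB/PPIA), 2^(−ΔΔCt) vs DMSO as percent response. Cells (A673 or K562) dosed 24 h, 11 points 3-fold from 10 uM, DMSO ≤0.25%.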
(In general: In qPCR the cycle at which signal appears reflects the starting amount.)

Assay [2] deals with MYB. Description: Splicing RT-qPCR assay, MYB mRNA canonical junction (CJ) and alternative junction (AJ). The conditions noted are these: Homo sapiens; for AC50: increase in AJ mRNA. In a few lines: as §1
The subject of a further assay is SMN2. Description: Splicing RT-qPCR panel, SMN2 canonical junction (CJ) mRNA. The settings on record: Homo sapiens, RT-qPCR panel, canonical junction mRNA; compound concentration having 50% response in CJ decrease; read-out: SMN2 IC50 (decrease in CJ mRNA levels). The method in brief:
as §1

Assay [3] relates to Target C. The assay is described as follows: Splicing RT-qPCR panel, Target C canonical junction (CJ) mRNA. The conditions noted are these: Homo sapiens, RT-qPCR panel, canonical junction mRNA; compound concentration having 50% response in CJ decrease; read-out: Target C IC50 (decrease in CJ mRNA levels). In a few lines: as §1
The test system of assay [4] is MYB. Description: HiBiT protein abundance assay, MYB. The conditions noted are these: Homo sapiens, K562, 24 h, Table 13A, modified K562 cells. The method in brief:
(§2)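 K562 cells with endogenous HiBiT-tagged target were treated 24 h at 37 °C with compound (10-point 3-fold dilution, top 10 μM final, DMSO ≤0.25%). Lytic LgBiT luminescence was normalized to unmodified K562 (baseline) and DMSO-treated tagged cells; IC50 interpolated at 50% from four-parameter logistic fit.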

Assay [5] has as its system HTT. Description: HiBiT protein abundance assay, HTT. The conditions noted are these: Homo sapiens, K562, 24 h, Table 13A, modified K562 cells. In a few lines:
as §2
On the technique in general: With HiBiT, luminescence reflects the tagged protein that the partner subunit can reach.

Assay [6] relates to Target C. Description: HiBiT protein abundance assay, Target C. The conditions noted are these: Homo sapiens, K562, 24 h, Table 13A, modified K562 cells. The method in brief:
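HiBiT knock-in K562-derived cells, 10000 cells/well, were treated 24 h at 37 °C with a 10-point 3-fold dilution series (top 10 μM final, DMSO ≤0.25%). Lytic HiBiT luminescence was normalized to unmodified K562 and DMSO controls; IC50 was interpolated at 50% from a four-parameter logistic fit.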

[7] abbreviates: 24 h, decrease in CJ mRNA, A673 or K562 cells, 24 hours treatment, RT-qPCR, read-out: HTT CJ IC50.
The mark [8] stands for this setting: 24 h, A673 or K562 cells, 24 hours treatment, RT-qPCR.
Setting [9] is: RT-qPCR panel, canonical junction mRNA, compound concentration having 50% response in CJ decrease, read-out: HTT IC50 (decrease in CJ mRNA levels).
Where [10] appears, read: 24 h, decrease in CJ mRNA, A673 or K562 cells, 24 hours treatment, RT-qPCR, read-out: MYB CJ IC50.
Setting [11] is: RT-qPCR panel, canonical junction mRNA, compound concentration having 50% response in CJ decrease, read-out: MYB IC50 (decrease in CJ mRNA levels).

One may read the IC50 as the concentration at which inhibition is half-maximal. Broadly, the AC50 is the concentration at which the activity in the assay is half-maximal. On to `Cc1[nH]ncc1-c1ccc(-c2ccc(N(C)C3CC(C)(C)NC(C)(C)C3)nn2)c2ncsc12` [Compound 176], for which the IC50 in the assay on HTT [1] (setting [7]), in the assay on HTT [1] (setting [9]), in the assay on MYB [2] (setting [10]), in the assay with MYB [2] (setting [11]), in the assay on SMN2 and with Target C [3] was above 10 µM in each case. Besides, the IC50 with MYB [4], in the assay with HTT [5] and in the assay with Target C [6] was 1 to 10 µM each time. Also, the AC50 in the assay with HTT [1] (setting [8]) and with MYB [2] (setting [8]) was above 10 µM throughout.
As to `COc1cc(-c2ccc(-c3ccc(N(C)C4CC(C)(C)NC(C)(C)C4)nn3)c3ncsc23)ccn1` [Compound 177], the IC50 in the assay with HTT [1] (setting [7]) is above 10 µM; in the assay on HTT [1] (setting [9]), above 10 µM; with MYB [2] (setting [10]), 1 to 10 µM; with MYB [2] (setting [11]) it was 1 to 10 µM; in the assay on SMN2 it was 1 to 10 µM; in the assay on Target C [3] it was above 10 µM. Also, the IC50 with MYB [4], with HTT [5] and in the assay with Target C [6] was 1 to 10 µM each time. For the same compound, the AC50 in the assay on HTT [1] (setting [8]) and in the assay with MYB [2] (setting [8]) was above 10 µM each time.
As to `CN(c1ccc(-c2ccc(-c3cnc(=O)[nH]c3)c3scnc23)nn1)C1CC(C)(C)NC(C)(C)C1` [Compound 179], the IC50 in the assay with HTT [1] (setting [7]), with HTT [1] (setting [9]), in the assay with MYB [2] (setting [10]), in the assay on MYB [2] (setting [11]), in the assay on SMN2 and in the assay on Target C [3] was 0.1 to 1 µM each time. Further, the 50% inhibitory concentration (IC50) in the assay with MYB [4], with HTT [5] and in the assay on Target C [6] was 0.1 to 1 µM throughout. For the same compound, the AC50 in the assay on HTT [1] (setting [8]) and in the assay with MYB [2] (setting [8]) was 0.1 to 1 µM in each case.
Turning to `CN(c1ccc(-c2ccc(-c3ccc(=O)[nH]c3)c3scnc23)nn1)C1CC(C)(C)NC(C)(C)C1` [Compound 180], the IC50 in the assay on HTT [1] (setting [7]), with HTT [1] (setting [9]), in the assay with MYB [2] (setting [10]), in the assay with MYB [2] (setting [11]), in the assay on SMN2 and in the assay on Target C [3] was 0.1 to 1 µM in each case. In addition, the IC50 with MYB [4], in the assay on HTT [5] and with Target C [6] was 0.1 to 1 µM in each case. Further, the AC50 with HTT [1] (setting [8]) and in the assay with MYB [2] (setting [8]) was 0.1 to 1 µM each time.
On to `CC1(C)CC(Oc2ccc(-c3ccc(-c4cn[nH]c4)c4ncsc34)nn2)CC(C)(C)N1` [Compound 181], for which the IC50 in the assay on HTT [1] (setting [7]) is above 10 µM; in the assay with HTT [1] (setting [9]), above 10 µM; with MYB [2] (setting [10]) it was above 10 µM; in the assay on MYB [2] (setting [11]) it was above 10 µM; in the assay with SMN2 it was below 0.1 µM; in the assay with Target C [3] it was above 10 µM. Moreover, the IC50 in the assay with MYB [4], in the assay with HTT [5] and in the assay on Target C [6] was below 0.1 µM throughout. Besides, the AC50 in the assay with HTT [1] (setting [8]) and in the assay on MYB [2] (setting [8]) was above 10 µM each time.
For the compound `c1nc2c(-c3cn[nH]c3)ccc(-c3ccc(N4CCNCC4)nn3)c2s1` [Compound 185], the IC50 in the assay with HTT [1] (setting [7]) is above 10 µM; in the assay with HTT [1] (setting [9]), above 10 µM; with MYB [2] (setting [10]) it was 1 to 10 µM; in the assay with MYB [2] (setting [11]), 1 to 10 µM; with SMN2 it was 0.1 to 1 µM; in the assay on Target C [3], above 10 µM. The IC50 in the assay with MYB [4], in the assay with HTT [5] and in the assay with Target C [6] was 1 to 10 µM each time. In addition, the AC50 is 1 to 10 µM in the assay on HTT [1] (setting [8]) and above 10 µM in the assay with MYB [2] (setting [8]).
Take `c1nc2c(-c3cn[nH]c3)ccc(-c3ccc(N4CC5(CCCNC5)C4)nn3)c2s1` [Compound 187]: the IC50 is above 10 µM in the assay with HTT [1] (setting [7]); above 10 µM in the assay with HTT [1] (setting [9]); above 10 µM in the assay on MYB [2] (setting [10]); above 10 µM in the assay with MYB [2] (setting [11]); 1 to 10 µM in the assay on SMN2; above 10 µM with Target C [3]. Besides, the results for the concentration for half-maximal inhibition (IC50) in the assay on MYB [4], with HTT [5] and with Target C [6] were 1 to 10 µM, 1 to 10 µM and above 10 µM, respectively. Also, the AC50 in the assay with HTT [1] (setting [8]) and in the assay with MYB [2] (setting [8]) was above 10 µM throughout.
Turning to `c1nc2c(-c3cn[nH]c3)ccc(-c3ccc(N4CCC5(CC4)CNC5)nn3)c2s1` [Compound 188], the IC50 in the assay on HTT [1] (setting [7]), in the assay with HTT [1] (setting [9]), in the assay with MYB [2] (setting [10]), in the assay on MYB [2] (setting [11]), with SMN2 and in the assay on Target C [3] was above 10 µM in each case. The IC50 in the assay with MYB [4], in the assay with HTT [5] and in the assay with Target C [6] was above 10 µM each time. Also, the AC50 with HTT [1] (setting [8]) and with MYB [2] (setting [8]) was above 10 µM in each case.
With `c1nc2c(-c3cn[nH]c3)ccc(-c3ccc(N4CCCC5(CNC5)C4)nn3)c2s1` [Compound 189], the IC50 with HTT [1] (setting [7]), with HTT [1] (setting [9]), in the assay on MYB [2] (setting [10]), in the assay on MYB [2] (setting [11]), in the assay on SMN2 and with Target C [3] was above 10 µM in each case. Moreover, the IC50 in the assay with MYB [4], in the assay with HTT [5] and in the assay with Target C [6] was above 10 µM throughout. The AC50 in the assay on HTT [1] (setting [8]) and in the assay with MYB [2] (setting [8]) was above 10 µM each time.
As for `c1nc2c(-c3cn[nH]c3)ccc(-c3ccc(N4CCC5(CCNCC5)C4)nn3)c2s1` [Compound 190], the IC50 in the assay with HTT [1] (setting [7]), with HTT [1] (setting [9]), in the assay with MYB [2] (setting [10]), in the assay on MYB [2] (setting [11]), in the assay on SMN2 and with Target C [3] was above 10 µM in each case. Moreover, the IC50 in the assay on MYB [4], in the assay with HTT [5] and with Target C [6] was above 10 µM in each case. Besides, the AC50 in the assay with HTT [1] (setting [8]) and in the assay with MYB [2] (setting [8]) was above 10 µM throughout.
Take `c1nc2c(-c3cn[nH]c3)ccc(-c3ccc(N4CCC5(CCCNC5)C4)nn3)c2s1` (stereo not shown) [Compound 191]: the IC50 with HTT [1] (setting [7]) is above 10 µM; in the assay on HTT [1] (setting [9]), above 10 µM; in the assay with MYB [2] (setting [10]), above 10 µM; in the assay with MYB [2] (setting [11]), above 10 µM; in the assay with SMN2, 1 to 10 µM; with Target C [3], above 10 µM. Also, the IC50 is 1 to 10 µM with MYB [4], 1 to 10 µM with HTT [5] and above 10 µM in the assay with Target C [6]. Moreover, the AC50 in the assay on HTT [1] (setting [8]) and in the assay with MYB [2] (setting [8]) was above 10 µM each time.
Turning to `c1nc2c(-c3cn[nH]c3)ccc(-c3ccc(N4CCC5(CCNC5)CC4)nn3)c2s1` [Compound 192], the IC50 with HTT [1] (setting [7]), in the assay with HTT [1] (setting [9]), in the assay on MYB [2] (setting [10]), with MYB [2] (setting [11]), in the assay with SMN2 and with Target C [3] was above 10 µM throughout. Also, the IC50 with MYB [4], in the assay with HTT [5] and with Target C [6] was above 10 µM in each case. Moreover, the AC50 with HTT [1] (setting [8]) and with MYB [2] (setting [8]) was above 10 µM throughout.
In the case of `c1nc2c(-c3cn[nH]c3)ccc(-c3ccc(N4CCCC5(CCNC5)C4)nn3)c2s1` (stereo not shown) [Compound 193], the IC50 in the assay on HTT [1] (setting [7]), in the assay with HTT [1] (setting [9]), in the assay with MYB [2] (setting [10]), with MYB [2] (setting [11]), with SMN2 and with Target C [3] was above 10 µM in each case. Also, the IC50 was 1 to 10 µM in the assay on MYB [4], above 10 µM with HTT [5] and above 10 µM with Target C [6]. The AC50 in the assay on HTT [1] (setting [8]) and with MYB [2] (setting [8]) was above 10 µM each time.
`c1nc2c(-c3cn[nH]c3)ccc(-c3ccc(NC4CNC4)nn3)c2s1` [Compound 196]: the IC50 in the assay with HTT [1] (setting [7]), in the assay with HTT [1] (setting [9]), with MYB [2] (setting [10]), with MYB [2] (setting [11]), with SMN2 and with Target C [3] was above 10 µM each time. For the same compound, the IC50 in the assay with MYB [4], with HTT [5] and with Target C [6] was above 10 µM in each case. Besides, the AC50 with HTT [1] (setting [8]) and in the assay with MYB [2] (setting [8]) was above 10 µM throughout.
